From patent publication US20150080461A1, “Composition Having Antiviral Activity against Flavivirus” (University Malaya, priority 2012, published 2015)
In brackets after ≈: the same amount, converted by molar mass.

Tests used:
DENV-2 (NGC strain) [1] = assay: Continuous treatment antiviral activity against DENV-2 (FFURA, qRT-PCR); assay type: cell-based, Dengue virus type-2
Description: In separate experiment, to determine the antiviral activities of quercetin when used continuously, different concentrations of quercetin were added to the Vero cell monolayer five hours before virus infection. After five hours of pre-infection treatment, the cells were washed twice with sterile PBS and then 200 FFU of DENV-2 was inoculated to the cells and incubated at 37° C. for one hour. Infected cells were continuously incubated with the respective concentration of quercetin for four days post infection. Viral foci formed were counted and DENV RNA copy number to indicate inhibition of virus replication was quantified using quantitative RT-PCR.
(§1) In general, antiviral activity of quercein was evaluated by measuring the reduction in number of viral foci. Confluent Vero cell monolayers prepared in 24 wells cell culture microplates were used. Then the infected cells treated using the different treatment regime was overlaid with 1.5% of carboxy methyl cellulose (CMC) (Sigma-Aldrich, St. Louis, Mo., USA) containing EMEM. Viral foci were visualized using peroxidase-based foci staining assay four days post infection. The number of DENV-2 foci formed was counted under a stereomicroscope and the virus titer was expressed as Foci-Forming-Unit (FFU). The percentage of viral foci reduction (RF %) compared to untreated controls was calculated as follows: […]
(§2) where, C is the mean of the number of foci for negative control well (without compound) and T is the mean of the number of foci in treated wells.
(§3) Reduction in the number of viral foci was further verified using quantitative real time polymerase chain reaction (qRT-PCR) amplification.
(§4) Quantitative RT-PCR was performed to determine the effect of the compound on DENV replication by quantifying DENV-2 genomic RNA copy number. Briefly, intracellular and extracellular DENV-2 RNAs were harvested from the DENV-infected Vero cells. Viral RNA was extracted using two types of RNA extraction kits (QlAamp Viral RNA mini kit and RNeasy mini kit) (Qiagen, Hilden, Germany). Quantitative RT-PCR assay was performed by adding 1 µl of extracted DENV RNA to the SensiMix SYBR green reagent (Quantace, Watford, United Kingdom) which contained 7.4 μl ddH2O, 10 μl 2× SensiMix One-Step, 0.4 μl 50× SYBR Green solution, 10 units of RNAse Inhibitor, 50 pmol of forward (DNF) and also reverse (D2R) primers. All samples were assayed in triplicate. […] For absolute quantitation of the viral RNA, a standard curve was established with a serially diluted RNA extracted from DENV-2 stock with a known titer.

[2] = MTT cytotoxicity assay on Vero cells; assay type: cell-based; conditions: African green monkey, read-out: CC50, cytotoxicity effect against Vero cells
Description: C6/36 mosquito cell line derived from Aedes albopictus and Vero cell line were used. Both cell lines were maintained and propagated in Eagle's Minimum Essential Medium (EMEM) containing 10% fetal bovine serum. Cultured C6/36 and Vero cells were incubated at 28° C. and 37° C., respectively in 5% CO2 humidified chamber. At the time of virus propagation, serum concentration was reduced to 2%. Dengue virus type-2 (DENV-2) New Guinea C strain (NGC) was propagated using C6/36 cell line and harvested after CPE presentation on day seven post infection. After titration, viral stock was stored at -70° C. MTT (Dimethyl thiazolyl diphenyl tetrazolium salt) assay was performed to determine cytotoxicity of quercetin on Vero cells.

DENV-2 (NGC strain) [3] = assay: Post-adsorption antiviral activity against intracellular replication of DENV-2 (FFURA, qRT-PCR); assay type: cell-based, Dengue virus type-2
Description: Post-adsorption antiviral activity of quercetin against intracellular replication of DENV-2 was performed by inoculating 200 FFU of virus to each well containing monolayer of Vero cells. After adsorption of virus to the cells for one hour at 37° C., the cells were washed with PBS to remove the unadsorped viruses. Then, different concentrations of quercetin were added to the cells followed by four days incubation at 37° C. Viral foci formed were counted and DENV RNA copy number to indicate inhibition of virus replication was quantified using quantitative RT-PCR.
as §1, §2, §3
as §4, with “triplicate. Amplification was performed using the DNA Engine Opticon system (MJ Research/Bio-Rad, Hercules, Calif.) with the following cycling conditions: reverse transcription at 50° C. for 30 min, initial denaturation at 95° C. for 10 min, followed by 45 cycles of 95° C. for 15 sec, 59° C. for 30 sec and 72° C. for 30 sec.” for “triplicate.”

DENV-2 (NGC strain) [4] = assay: Anti-adsorption activity against DENV-2 (FFURA, qRT-PCR); assay type: cell-based, Dengue virus type-2; conditions: added to cells simultaneously during infection, FFURA and qRT-PCR
Description: In another experiment, Vero cells at ˜80% confluency were infected with 200 FFU of DENV-2 in the presence or absence of different concentrations of quercetin. The microplate was kept at 37° C. for one hour for virus adsorption. Then the cells were washed twice using sterile PBS and incubated for two hours at 37° C. Cells were then incubated for 4 days and foci formed was counted and DENV RNA copy number to indicate inhibition of virus adsorption was quantified using quantitative RT-PCR.
(§5) In general, antiviral activity of quercein was evaluated by measuring the reduction in number of viral foci. Confluent Vero cell monolayers prepared in 24 wells cell culture microplates were used. […] The number of DENV-2 foci formed was counted under a stereomicroscope and the virus titer was expressed as Foci-Forming-Unit (FFU). The percentage of viral foci reduction (RF %) compared to untreated controls was calculated as follows: […]
as §3
(§6) Quantitative RT-PCR was performed to determine the effect of the compound on DENV replication by quantifying DENV-2 genomic RNA copy number. […] For absolute quantitation of the viral RNA, a standard curve was established with a serially diluted RNA extracted from DENV-2 stock with a known titer.

DENV-2 (NGC strain) [5] = assay: Direct virucidal effect against DENV-2 (FFURA, qRT-PCR); assay type: cell-based, Dengue virus type-2
Description: Direct virucidal effect of quercetin was investigated by incubating DENV-2 suspension containing 200 FFU with an equal volume of the different concentrations of quercetin for two hours at 37° C. Then, Vero cells were infected with the treated viral suspension in triplicates. At one hour adsorption at 37° C., cells were washed twice with PBS in order to remove unadsorbed viruses. The microplate was incubated at 37° C. for four days. Viral foci formed were counted and DENV RNA copy number to indicate direct virucidal effects was quantified using quantitative RT-PCR.
as §5, with “foci.” for “foci. Confluent Vero cell monolayers prepared in 24 wells cell culture microplates were used.”
as §3, §6

O=c1c(O)c(-c2ccc(O)c(O)c2)oc2cc(O)cc(O)c12 [quercetin, 2-(3,4-dihydroxyphenyl)-3,5,7-trihydroxy-4H-1-benzopyran-4-one]
decrease of the number of DENV-2 foci (DENV-2 (NGC strain) [1]; 50 μg/mL quercetin, continuous treatment of Vero cells, vs non-treated cells): 70%±1.5
IC50 (DENV-2 (NGC strain) [1]; Dengue virus, DENV2, continuous treatment from 5 hours before infection up to 4 days post-infection, Vero cells, FFURA, read-out: IC50, anti-dengue activity): 28.9 µg/mL (≈ 95.6 µM)
SI value (DENV-2 (NGC strain) [1]; continuous treatment): 8.74
decrease of DENV-2 RNA production (DENV-2 (NGC strain) [1]; continuous treatment, qRT-PCR): more than 75.7%±1.57
CC50 [2]: 252.6 ± 0.17 µg/mL (≈ 836 µM)
decrease of DENV-2 specific RNA production (DENV-2 (NGC strain) [3]; 50 μg/mL quercetin, post-adsorption, qRT-PCR, vs non-treated infected cells): more than 67%±1
appearance of viral foci in treated cells (DENV-2 (NGC strain) [3]; 50 μg/ml quercetin, foci staining, vs untreated dengue infected cells): small, less intensely stained and more diffused
IC50 (DENV-2 (NGC strain) [3]; Dengue virus, DENV2, added post viral adsorption, Vero cells, FFURA): 35.7 µg/mL (≈ 118 µM)
SI value (DENV-2 (NGC strain) [3]; post-adsorption assay): 7.07
anti-adsorption activity against DENV-2 (DENV-2 (NGC strain) [4]): ~5%
decrease in copy number of DENV-2 RNA following direct treatment (DENV-2 (NGC strain) [5]; different concentrations of compound, qRT-PCR): no significant decrease
direct virucidal activity against DENV-2 (DENV-2 (NGC strain) [5]; virus incubated with compound two hours at 37° C., foci): no significant direct virucidal activity
